According to USRE48335E1, “Polymyxin derivatives as antimicrobial compounds” (priority 2014, dated 2020):
Converted amounts (≈) assume the structure as drawn. Positions of bridges follow the written chain, without caps; N, C: chain ends. Non-standard residues stand in square brackets, D forms with d. Residues, ends and D or L forms follow the SMILES beside them. *: point of attachment. Phenylacetyl(4-CF3) = O=C(Cc1ccc(C(F)(F)F)cc1)*; X21 = O=C(c1ccc(C(F)(F)F)c(Cl)c1)*; X13 = O=C(Cc1ccc(Cl)cc1Cl)*; Decanoyl = CCCCCCCCCC(=O)*; Nonanoyl = CCCCCCCCC(=O)*; Dab = NCC[C@H](N)C(=O)O; Abu = CC[C@H](N)C(=O)O; Dap = NC[C@H](N)C(=O)O

Experiments:
P. aeruginosa ATCC 27853 = test: In vivo efficacy in mouse blood infection model (neutropenic Swiss mice); settings: compound, free base 4 mg/kg intravenously 2 h after inoculation, blood at 4 h
How it was run: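 Activity expressed as Δlog10 CFU/mL blood, treated minus saline control, 4 h after a single 4 mg/kg (free base) i.v. dose given 2 h post-infection. Bloodstream infection from i.v. early log-phase inoculum in Swiss mice made neutropenic by i.p. cyclophosphamide on days −4 (150 mg/kg) and −1 (100 mg/kg).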

Enterobacter cloacae = test system: Enterobacter cloacae
How it was run: (§1)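 Lipopeptides, as trifluoroacetate salts, tested for MIC in CAMHB by CLSI broth microdilution, with polymyxin B (sulphate) as comparator.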

Acinetobacter baumannii = test system: Acinetobacter baumannii
How it was run: as §1

Pseudomonas aeruginosa = test system: Pseudomonas aeruginosa
How it was run: as §1

Klebsiella pneumoniae = test system: Klebsiella pneumoniae
How it was run: as §1

## CCCCCCCCCC(=O)N[C@@H](CCN)C(=O)N[C@H](C(=O)N[C@@H](CCN)C(=O)N[C@H]1CCNC(=O)[C@H]([C@@H](C)O)NC(=O)[C@H](CCN)NC(=O)[C@H](CCN)NC(=O)[C@H]([C@@H](C)O)NC(=O)[C@@H](CC(C)C)NC(=O)[C@H](CCN)NC1=O)[C@@H](C)O [Compound 27] (Decanoyl-[Dab]T[Dab][Dab][Dab][dL]T[Dab][Dab]T; lactam 4-C)
P. aeruginosa ATCC 27853
  Δ log (Treated-Control at 4 h): −3.67 log10 CFU/mL
Enterobacter cloacae
  Minimum inhibitory concentration, Ec FADDI-EC001: <0.125 mg/L
  Minimum inhibitory concentration, Ec FADDI-EC003: <0.125 mg/L
  Minimum inhibitory concentration, Ec FADDI-EC006: 0.25 mg/L (≈ 0.213 µM)
Acinetobacter baumannii
  MIC: 1 mg/L (≈ 0.854 µM)
  Minimum inhibitory concentration, Ab A ATCC 17978: 1 mg/L (≈ 0.854 µM)
  Minimum inhibitory concentration, Ab ATCC 19606: 1 mg/L (≈ 0.854 µM)
  Minimum inhibitory concentration, Ab FADDI-AB034: 1 mg/L (≈ 0.854 µM)
Pseudomonas aeruginosa
  MIC: 1 mg/L (≈ 0.854 µM)
  Minimum inhibitory concentration, Pa ATCC 27853: 1 mg/L (≈ 0.854 µM)
  Minimum inhibitory concentration, Pa FADDI-PA022: 1 mg/L (≈ 0.854 µM)
  Minimum inhibitory concentration, Pa FADDI-PA025: 16 mg/L (≈ 13.7 µM)
Klebsiella pneumoniae
  MIC: 0.5 mg/L (≈ 0.427 µM)

## CC[C@@H]1NC(=O)[C@@H](CC(C)C)NC(=O)[C@H](CCN)NC(=O)[C@@H](NC(=O)[C@H](CN)NC(=O)[C@@H](NC(=O)[C@H](CCN)NC(=O)Cc2ccc(C(F)(F)F)cc2)[C@@H](C)O)CCNC(=O)[C@H]([C@@H](C)O)NC(=O)[C@H](CCN)NC(=O)[C@H](CCN)NC1=O [Compound 127] ({Phenylacetyl(4-CF3)}-[Dab]T[Dap][Dab][Dab][dL][Abu][Dab][Dab]T; lactam 4-C)
P. aeruginosa ATCC 27853
  Δ log (Treated-Control at 4 h): −3.51 log10 CFU/mL
Enterobacter cloacae
  Minimum inhibitory concentration, Ec FADDI-EC001: <0.125 mg/L
  Minimum inhibitory concentration, Ec FADDI-EC003: 0.25 mg/L (≈ 0.213 µM)
  Minimum inhibitory concentration, Ec FADDI-EC006: 0.5 mg/L (≈ 0.426 µM)
Acinetobacter baumannii
  MIC: 4 mg/L (≈ 3.41 µM)
  Minimum inhibitory concentration, Ab A ATCC 17978: 1 mg/L (≈ 0.852 µM)
  Minimum inhibitory concentration, Ab ATCC 19606: 4 mg/L (≈ 3.41 µM)
  Minimum inhibitory concentration, Ab FADDI-AB034: 0.5 mg/L (≈ 0.426 µM)
Pseudomonas aeruginosa
  MIC: 0.5 mg/L (≈ 0.426 µM)
  Minimum inhibitory concentration, Pa ATCC 27853: 0.5 mg/L (≈ 0.426 µM)
  Minimum inhibitory concentration, Pa FADDI-PA022: 0.5 mg/L (≈ 0.426 µM)
  Minimum inhibitory concentration, Pa FADDI-PA025: 16 mg/L (≈ 13.6 µM)
Klebsiella pneumoniae
  MIC: 0.5 mg/L (≈ 0.426 µM)

## CC[C@@H]1NC(=O)[C@@H](CC(C)C)NC(=O)[C@H](CCN)NC(=O)[C@@H](NC(=O)[C@H](CN)NC(=O)[C@@H](NC(=O)[C@H](CCN)NC(=O)c2ccc(C(F)(F)F)c(Cl)c2)[C@@H](C)O)CCNC(=O)[C@H]([C@@H](C)O)NC(=O)[C@H](CCN)NC(=O)[C@H](CCN)NC1=O [Compound 115] (X21-[Dab]T[Dap][Dab][Dab][dL][Abu][Dab][Dab]T; lactam 4-C)
P. aeruginosa ATCC 27853
  Δ log (Treated-Control at 4 h): −2.71 log10 CFU/mL
Enterobacter cloacae
  Minimum inhibitory concentration, Ec FADDI-EC001: 0.25 mg/L (≈ 0.209 µM)
  Minimum inhibitory concentration, Ec FADDI-EC003: 0.25 mg/L (≈ 0.209 µM)
  Minimum inhibitory concentration, Ec FADDI-EC006: 0.25 mg/L (≈ 0.209 µM)
Acinetobacter baumannii
  MIC: 0.5 mg/L (≈ 0.419 µM)
  Minimum inhibitory concentration, Ab A ATCC 17978: 0.5 mg/L (≈ 0.419 µM)
  Minimum inhibitory concentration, Ab ATCC 19606: 0.5 mg/L (≈ 0.419 µM)
  Minimum inhibitory concentration, Ab FADDI-AB034: 0.5 mg/L (≈ 0.419 µM)
Pseudomonas aeruginosa
  MIC: 1 mg/L (≈ 0.838 µM)
  Minimum inhibitory concentration, Pa ATCC 27853: 1 mg/L (≈ 0.838 µM)
  Minimum inhibitory concentration, Pa FADDI-PA022: 0.5 mg/L (≈ 0.419 µM)
  Minimum inhibitory concentration, Pa FADDI-PA025: 1 mg/L (≈ 0.838 µM)
Klebsiella pneumoniae
  MIC: 0.125 mg/L (≈ 0.105 µM)

## CCCCCCCCC(=O)N[C@@H](CCN)C(=O)N[C@H](C(=O)N[C@@H](CN)C(=O)N[C@H]1CCNC(=O)[C@H]([C@@H](C)O)NC(=O)[C@H](CCN)NC(=O)[C@H](CCN)NC(=O)[C@H](CO)NC(=O)[C@@H](Cc2ccccc2)NC(=O)[C@H](CCN)NC1=O)[C@@H](C)O [Compound 143] (Nonanoyl-[Dab]T[Dap][Dab][Dab][dF]S[Dab][Dab]T; lactam 4-C)
P. aeruginosa ATCC 27853
  Δ log (Treated-Control at 4 h): −3.47 log10 CFU/mL
Enterobacter cloacae
  Minimum inhibitory concentration (MIC), Ec FADDI-EC001: 1 mg/L (≈ 0.86 µM)
  Minimum inhibitory concentration (MIC), Ec FADDI-EC003: 0.5 mg/L (≈ 0.43 µM)
  Minimum inhibitory concentration (MIC), Ec FADDI-EC006: 0.5 mg/L (≈ 0.43 µM)
Acinetobacter baumannii
  MIC: 1 mg/L (≈ 0.86 µM)
  Minimum inhibitory concentration (MIC), Ab ATCC 17978: 1 mg/L (≈ 0.86 µM)
  Minimum inhibitory concentration (MIC), Ab ATCC 19606: 1 mg/L (≈ 0.86 µM)
  Minimum inhibitory concentration (MIC), Ab FADDI-AB034: 0.5 mg/L (≈ 0.43 µM)
Pseudomonas aeruginosa
  MIC: 0.5 mg/L (≈ 0.43 µM)
  Minimum inhibitory concentration (MIC), Pa ATCC 27853: 0.5 mg/L (≈ 0.43 µM)
  Minimum inhibitory concentration (MIC), Pa FADDI-PA022: 0.5 mg/L (≈ 0.43 µM)
  Minimum inhibitory concentration (MIC), Pa FADDI-PA025: 16 mg/L (≈ 13.8 µM)
Klebsiella pneumoniae
  MIC: 0.25 mg/L (≈ 0.215 µM)

## CC(C)C[C@H]1NC(=O)[C@H](CCN)NC(=O)[C@@H](NC(=O)[C@H](CN)NC(=O)[C@@H](NC(=O)[C@H](CCN)NC(=O)Cc2ccc(Cl)cc2Cl)[C@@H](C)O)CCNC(=O)[C@H]([C@@H](C)O)NC(=O)[C@H](CCN)NC(=O)[C@H](CCN)NC(=O)[C@H]([C@@H](C)O)NC1=O [Compound 62] (X13-[Dab]T[Dap][Dab][Dab][dL]T[Dab][Dab]T; lactam 4-C)
P. aeruginosa ATCC 27853
  Δ log (Treated-Control at 4 h): −2.69 log10 CFU/mL
Enterobacter cloacae
  Minimum inhibitory concentration, Ec FADDI-EC001: <0.125 mg/L
  Minimum inhibitory concentration, Ec FADDI-EC003: <0.125 mg/L
  Minimum inhibitory concentration, Ec FADDI-EC006: 0.25 mg/L (≈ 0.21 µM)
Acinetobacter baumannii
  MIC: 2 mg/L (≈ 1.68 µM)
  Minimum inhibitory concentration, Ab A ATCC 17978: 1 mg/L (≈ 0.84 µM)
  Minimum inhibitory concentration, Ab ATCC 19606: 2 mg/L (≈ 1.68 µM)
  Minimum inhibitory concentration, Ab FADDI-AB034: 1 mg/L (≈ 0.84 µM)
Pseudomonas aeruginosa
  MIC: 0.5 mg/L (≈ 0.42 µM)
  Minimum inhibitory concentration, Pa ATCC 27853: 0.5 mg/L (≈ 0.42 µM)
  Minimum inhibitory concentration, Pa FADDI-PA022: 1 mg/L (≈ 0.84 µM)
  Minimum inhibitory concentration, Pa FADDI-PA025: 1 mg/L (≈ 0.84 µM)
Klebsiella pneumoniae
  MIC: 0.25 mg/L (≈ 0.21 µM)
